Data from PubChem BioAssay (NCI).
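Test compounds were applied to cells in 96-well plates for 48 hours at 5 doses. TGI: total growth inhibition.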

Columns and labels:
Experiment in all cases: NCI tumour cell line growth inhibition, 48 h
XF 498 CNS = test system: XF 498 CNS
LXFL 529 NSCLC = test system: LXFL 529 NSCLC
U251 CNS = test system: U251 CNS
DMS 114 small cell lung = test system: DMS 114 small cell lung
DLD-1 colon = test system: DLD-1 colon
DMS 273 small cell lung = test system: DMS 273 small cell lung
M19-MEL melanoma = test system: M19-MEL melanoma
RXF-631 renal = test system: RXF-631 renal
KM20L2 colon = test system: KM20L2 colon
OVCAR-8 ovarian = test system: OVCAR-8 ovarian
SNB-78 CNS = test system: SNB-78 CNS
HCT-15 colon = test system: HCT-15 colon
HOP-18 NSCLC = test system: HOP-18 NSCLC

## C/C(=N\NC(=O)C[N+](C)(C)C)c1sc(-c2cccnc2)nc1C
XF 498 CNS
  TGI: > 100 µM
LXFL 529 NSCLC
  TGI: > 100 µM
U251 CNS
  TGI: > 100 µM
DMS 114 small cell lung
  TGI: > 100 µM
DLD-1 colon
  TGI: > 100 µM
DMS 273 small cell lung
  TGI: > 100 µM
M19-MEL melanoma
  TGI: > 100 µM
RXF-631 renal
  TGI: > 100 µM
KM20L2 colon
  TGI: > 100 µM
OVCAR-8 ovarian
  TGI: > 100 µM
SNB-78 CNS
  TGI: > 100 µM

## CC(C)c1ccc(C2NC(=S)NC3=C2c2ccccc2C3=O)cc1 (configuration not stated)
XF 498 CNS
  TGI: > 100 µM
LXFL 529 NSCLC
  TGI: > 100 µM
U251 CNS
  TGI: > 58.7 µM
DMS 114 small cell lung
  TGI: 58.8 µM
DLD-1 colon
  TGI: > 100 µM
DMS 273 small cell lung
  TGI: > 100 µM
M19-MEL melanoma
  TGI: > 100 µM
RXF-631 renal
  TGI: > 100 µM
KM20L2 colon
  TGI: 64.5 µM
OVCAR-8 ovarian
  TGI: > 62.1 µM
HCT-15 colon
  TGI: > 51.9 µM

## N#Cc1ccc(/C=C(/C(=O)c2ccccc2)c2ccccc2)cc1
XF 498 CNS
  TGI: 16.4 µM
LXFL 529 NSCLC
  TGI: 20.4 µM
U251 CNS
  TGI: 25 µM
DMS 114 small cell lung
  TGI: 31.5 µM
DLD-1 colon
  TGI: 13 µM
DMS 273 small cell lung
  TGI: 26.2 µM
HOP-18 NSCLC
  TGI: > 55.1 µM
M19-MEL melanoma
  TGI: 31.8 µM
RXF-631 renal
  TGI: 29.8 µM
KM20L2 colon
  TGI: 31.2 µM
OVCAR-8 ovarian
  TGI: 22.1 µM
SNB-78 CNS
  TGI: 14.3 µM
HCT-15 colon
  TGI: 30.4 µM

## COc1ccc2c3c([nH]c(=O)c2c1C(=O)O)-c1ccccc1CC3
XF 498 CNS
  TGI: > 100 µM
LXFL 529 NSCLC
  TGI: > 100 µM
U251 CNS
  TGI: > 100 µM
DMS 114 small cell lung
  TGI: > 100 µM
DLD-1 colon
  TGI: > 100 µM
DMS 273 small cell lung
  TGI: > 100 µM
RXF-631 renal
  TGI: > 100 µM
KM20L2 colon
  TGI: > 100 µM
SNB-78 CNS
  TGI: > 100 µM
HCT-15 colon
  TGI: > 100 µM

## CC(C)(C)C1CCC2c3c([nH]c4ncccc34)C3C(=O)N(c4ccccc4)C(=O)C3C2C1 (configuration not stated)
XF 498 CNS
  TGI: > 100 µM
LXFL 529 NSCLC
  TGI: > 100 µM
U251 CNS
  TGI: > 100 µM
DMS 114 small cell lung
  TGI: > 100 µM
DLD-1 colon
  TGI: > 100 µM
DMS 273 small cell lung
  TGI: > 100 µM
HOP-18 NSCLC
  TGI: > 100 µM
M19-MEL melanoma
  TGI: > 100 µM
KM20L2 colon
  TGI: > 100 µM
OVCAR-8 ovarian
  TGI: > 100 µM
SNB-78 CNS
  TGI: > 100 µM
HCT-15 colon
  TGI: > 100 µM

## O=c1[nH]c2cc([N+](=O)[O-])ccc2nc1/C(=N/Nc1ccccc1)C(O)c1ccco1 (configuration not stated)
XF 498 CNS
  TGI: > 100 µM
LXFL 529 NSCLC
  TGI: > 100 µM
U251 CNS
  TGI: > 100 µM
DMS 114 small cell lung
  TGI: > 100 µM
DLD-1 colon
  TGI: > 100 µM
DMS 273 small cell lung
  TGI: > 100 µM
M19-MEL melanoma
  TGI: > 100 µM
RXF-631 renal
  TGI: > 100 µM
KM20L2 colon
  TGI: > 100 µM
OVCAR-8 ovarian
  TGI: > 100 µM
HCT-15 colon
  TGI: > 100 µM

## COc1cc2c(oc(=O)c3c4occc4cc(OC)c23)c2cccc(OCc3ccccc3)c12
XF 498 CNS
  TGI: > 100 µM
LXFL 529 NSCLC
  TGI: > 100 µM
U251 CNS
  TGI: > 100 µM
DMS 114 small cell lung
  TGI: > 100 µM
DLD-1 colon
  TGI: > 100 µM
DMS 273 small cell lung
  TGI: > 100 µM
HOP-18 NSCLC
  TGI: > 100 µM
M19-MEL melanoma
  TGI: > 100 µM
KM20L2 colon
  TGI: > 100 µM
OVCAR-8 ovarian
  TGI: > 100 µM
SNB-78 CNS
  TGI: > 100 µM
HCT-15 colon
  TGI: > 100 µM

## O=C(O)[C@@H]1OCCOCCO[C@@H](C(=O)O)[C@H](C(=O)O)OCCOCCO[C@H]1C(=O)O
XF 498 CNS
  TGI: > 100 µM
LXFL 529 NSCLC
  TGI: > 100 µM
U251 CNS
  TGI: > 86.9 µM
DMS 114 small cell lung
  TGI: > 92.3 µM
DLD-1 colon
  TGI: > 61.8 µM
DMS 273 small cell lung
  TGI: > 100 µM
HOP-18 NSCLC
  TGI: > 100 µM
M19-MEL melanoma
  TGI: > 100 µM
KM20L2 colon
  TGI: > 100 µM
OVCAR-8 ovarian
  TGI: > 100 µM
SNB-78 CNS
  TGI: > 100 µM
HCT-15 colon
  TGI: > 100 µM
